These results are taken from US8288411B2, “Pyrrolidines and piperidines as orexin receptor antagonists” (Actelion Pharmaceuticals Ltd., priority 2007, dated 2012).

Where two headings read alike, the source gives them in different places.

One experiment concerns the target T1, human orexin-2 receptor (Homo sapiens, UniProt O43614).
T1 construct: expressed in transfected cells; host or cells: CHO cells (G418 selection)
T1 sequence (O43614 1-444): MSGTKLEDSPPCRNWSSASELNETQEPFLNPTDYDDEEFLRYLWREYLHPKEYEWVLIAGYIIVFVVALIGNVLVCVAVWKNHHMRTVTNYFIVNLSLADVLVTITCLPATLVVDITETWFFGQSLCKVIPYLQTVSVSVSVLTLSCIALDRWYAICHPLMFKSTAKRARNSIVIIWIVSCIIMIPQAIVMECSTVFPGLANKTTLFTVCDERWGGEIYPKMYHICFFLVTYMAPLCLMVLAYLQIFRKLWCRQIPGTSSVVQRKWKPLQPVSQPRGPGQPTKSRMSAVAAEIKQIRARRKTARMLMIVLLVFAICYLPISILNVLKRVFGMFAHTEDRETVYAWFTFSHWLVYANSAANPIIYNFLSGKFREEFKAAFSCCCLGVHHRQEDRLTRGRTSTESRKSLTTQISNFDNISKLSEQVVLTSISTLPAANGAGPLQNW
The experiment is described as follows: FLIPR intracellular calcium assay, orexin receptor antagonistic activity, CHO cells expressing human orexin-2 receptor. Type of experiment: cell-based. As to conditions: read-out: OX2 IC50. The method, then: (§1) The orexin receptor antagonistic activity of the compounds of formula (I) is determined in accordance with one of the following experimental methods.
(§2) Chinese hamster ovary (CHO) cells expressing the human orexin-1 receptor and the human orexin-2 receptor, respectively, are grown in culture medium (Ham F-12 with L-Glutamine) containing 300 μg/ml G418, 100 U/ml penicillin, 100 μg/ml streptomycin and 10% heat inactivated fetal calf serum (FCS). The cells are seeded at 20'000 cells/well into 384-well black clear bottom sterile plates (Greiner). The seeded plates are incubated overnight at 37° C. in 5% CO2.
(§3) Human orexin-A as an agonist is prepared as 1 mM stock solution in MeOH: water (1:1), diluted in HBSS containing 0.1% bovine serum albumin (BSA), NaHCO3: 0.375 g/l and 20 mM HEPES for use in the assay at a final concentration of 3 nM.
(§4) Antagonists are prepared as 10 mM stock solution in DMSO, then diluted in 384-well plates, first in DMSO, then in HBSS containing 0.1% bovine serum albumin (BSA), NaHCO3: 0.375 g/l and 20 mM HEPES.
(§5) On the day of the assay, 50 μl of staining buffer (HBSS containing 1% FCS, 20 mM HEPES, NaHCO3: 0.375 g/l, 5 mM probenecid (Sigma) and 3 μM of the fluorescent calcium indicator fluo-4 AM (1 mM stock solution in DMSO, containing 10% pluronic) is added to each well.
(§6) The 384-well cell-plates are incubated for 50 min at 37° C. in 5% CO2 followed by equilibration at RT for 30-120 min before measurement.
(§7) Within the Fluorescent Imaging Plate Reader (FLIPR2 or FLIPR Tetra, Molecular Devices), antagonists are added to the plate in a volume of 10 μl/well, incubated for 10 min and finally 10 μl/well of agonist is added. Fluorescence is measured for each well at 1 second intervals, and the height of each fluorescence peak is compared to the height of the fluorescence peak induced by 3 nM orexin-A with vehicle in place of antagonist. For each antagonist, the IC50 value (the concentration of compound needed to inhibit 50% of the agonistic response) is determined. Optimized conditions may be achieved by adjustment of pipetting speed and cell splitting regime. The calculated IC50 values of the compounds may fluctuate depending on the daily cellular assay performance. Fluctuations of this kind are known to those skilled in the art.

For a further experiment, the target named is T2, human orexin-1 receptor (Homo sapiens, UniProt O43613).
T2 construct: expressed in transfected cells; host or cells: CHO cells (G418 selection)
T2 sequence (O43613 1-425): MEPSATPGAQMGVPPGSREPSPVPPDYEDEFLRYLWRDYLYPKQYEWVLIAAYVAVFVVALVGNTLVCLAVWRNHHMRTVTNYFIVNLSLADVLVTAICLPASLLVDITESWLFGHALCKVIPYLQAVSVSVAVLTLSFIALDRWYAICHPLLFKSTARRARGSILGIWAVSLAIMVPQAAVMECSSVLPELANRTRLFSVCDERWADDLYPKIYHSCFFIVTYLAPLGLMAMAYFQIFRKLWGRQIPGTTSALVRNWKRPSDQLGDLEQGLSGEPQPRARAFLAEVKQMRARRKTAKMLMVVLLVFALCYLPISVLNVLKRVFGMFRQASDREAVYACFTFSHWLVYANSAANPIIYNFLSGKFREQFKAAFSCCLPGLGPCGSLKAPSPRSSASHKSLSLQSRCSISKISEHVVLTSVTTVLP
The experiment is described as follows: FLIPR intracellular calcium assay, orexin receptor antagonistic activity, CHO cells expressing human orexin-1 receptor. The experiment is classed as cell-based. The conditions noted are these: read-out: OX1 IC50. The method, then: as §1, §2, §3, §4, §5, §6, §7
Background: Calcium flux is commonly read through the fluorescence of an indicator in the cells.

[1] abbreviates: measured with FLIPR 2, 3 nM orexin-A as agonist.
Where [2] appears, read: marked with *: measured with FLIPR Tetra, 3 nM orexin-A as agonist.

One may read the IC50 as the midpoint of a concentration-inhibition curve. On to `Cc1nc2sccn2c1C(=O)NC[C@@H]1CCCCN1C(=O)c1nc(-c2ccc(F)cc2)sc1-c1ccc(F)cc1` [Example 3], for which the half-inhibitory concentration (IC50) amounted to 24 nM on human orexin-2 receptor (setting [1]) and 1 nM on human orexin-1 receptor (setting [1]).

For `COc1cccc(-c2nc(C(=O)N3CCCC[C@H]3CNC(=O)c3c(C)nc4sccn34)c(-c3ccc(F)cc3)s2)c1` [Example 5, (S)-6-methyl-imidazo[2,1-b]thiazole-5-carboxylic acid{1-[5-(4-fluoro-phenyl)-2-(3-methoxy-phenyl)-thiazole-4-carbonyl]-piperidin-2-ylmethyl}-amide], the IC50 on human orexin-2 receptor (setting [1]) was 7 nM; at human orexin-1 receptor (setting [1]) it was 2 nM.

Consider `O=C(NC[C@@H]1CCCCN1C(=O)c1nc(-c2ccccc2)sc1-c1ccccc1F)c1cccc2c1CCO2` [Example 17, (S)-2,3-dihydro-benzofuran-4-carboxylic acid{1-[5-(2-fluoro-phenyl)-2-phenyl-thiazole-4-carbonyl]-piperidin-2-ylmethyl}-amide], for which the half-inhibitory concentration (IC50) at human orexin-2 receptor (setting [2]) is 68 nM; on human orexin-1 receptor (setting [2]) it was 20 nM.

As for `Cn1cc(C(=O)NC[C@@H]2CCCCN2C(=O)c2nc(-c3ccccc3)sc2-c2ccccc2F)c2ccccc21` [Example 24, (S)-1-methyl-1H-indole-3-carboxylic acid{1-[5-(2-fluoro-phenyl)-2-phenyl-thiazole-4-carbonyl]-piperidin-2-ylmethyl}-amide], the IC50 on human orexin-2 receptor (setting [2]) is 60 nM; at human orexin-1 receptor (setting [2]), 10 nM.

For `Cc1ccc(-c2sc(-c3ccccc3)nc2C(=O)N2CCCC[C@H]2CNC(=O)c2c(C)nc3sccn23)cc1` [Example 38, (S)-6-methyl-imidazo[2,1-b]thiazole-5-carboxylic acid[1-(2-phenyl-5-p-tolyl-thiazole-4-carbonyl)-piperidin-2-ylmethyl]-amide], the IC50 came to 8 nM at human orexin-2 receptor (setting [1]) and 2 nM on human orexin-1 receptor (setting [1]).

Take `Cn1nc(C(=O)NC[C@@H]2CCCN2C(=O)c2nc(-c3cccnc3)sc2-c2cccc(Cl)c2)c2ccccc21` [Example 44, (S)-1-methyl-1H-indazole-3-carboxylic acid{1-[5-(3-chloro-phenyl)-2-pyridin-3-yl-thiazole-4-carbonyl]-pyrrolidin-2-ylmethyl}-amide]: the IC50 on human orexin-2 receptor (setting [2]) worked out at 18 nM; at human orexin-1 receptor (setting [2]) it was 9 nM.

`Cc1cccc(-c2nc(C(=O)N3CCC[C@H]3CNC(=O)c3c(C)nc4sccn34)c(-c3ccc(F)cc3)s2)c1` [Example 45, (S)-6-methyl-imidazo[2,1-b]thiazole-5-carboxylic acid{1-[5-(4-fluoro-phenyl)-2-m-tolyl-thiazole-4-carbonyl]-pyrrolidin-2-ylmethyl}-amide]: the half-inhibitory concentration (IC50) on human orexin-2 receptor (setting [1]) was found to be 12 nM; at human orexin-1 receptor (setting [1]) it was 1 nM.
